Columns and labels:
[1] = target: Sodium- and chloride-dependent GABA transporter 1 (Mus musculus) (UniProt P31648); assay: Binding affinity to mouse GAT1 stably transfected in HEK293 cells assessed as residual binding at 100 uM relative to control; assay type: cell-based
[2] = target: T1, Sodium- and chloride-dependent GABA transporter 1 (Mus musculus, UniProt P31648); assay: Inhibition of mouse GAT1-mediated [3H]GABA uptake stably transfected in HEK293 cells; assay type: cell-based
[3] = Inhibition of mouse GAT4-mediated [3H]GABA uptake stably transfected in HEK293 cells; assay type: cell-based
[4] = target: T1, Sodium- and chloride-dependent GABA transporter 1; assay: Binding affinity to mouse GAT1 stably transfected in HEK293 cells by NO-711 binding assay; assay type: cell-based
HEK293 = assay: Inhibition of mouse GAT4-mediated [3H]GABA uptake stably transfected in HEK293 cells assessed as residual uptake at 100 uM relative to control; assay type: cell-based
[5] = target: Sodium- and chloride-dependent GABA transporter 1 (Mus musculus) (UniProt P31648); assay: Inhibition of mouse GAT1-mediated [3H]GABA uptake stably transfected in HEK293 cells assessed as residual uptake at 100 uM relative to control; assay type: cell-based
[6] = system: GABA transporter 2 (Mus musculus); assay: Inhibition of mouse GAT2-mediated [3H]GABA uptake stably transfected in HEK293 cells assessed as residual uptake at 100 uM relative to control
[7] = system: GABA transporter 3 (Mus musculus); assay: Inhibition of mouse GAT3-mediated [3H]GABA uptake stably transfected in HEK293 cells assessed as residual uptake at 100 uM relative to control

| SMILES | Activity [1] | IC50 [2] | IC50 [3] | Ki [4] | Activity (HEK293) | Activity [5] | Activity [6] | Activity [7] |
| --- | --- | --- | --- | --- | --- | --- | --- | --- |
| C[C@H](O)C[C@H](C(=O)NCc1ccccc1)N1CCC(=C(c2ccccc2)c2ccccc2)CC1 (relative stereo) | 51% | 24 µM | 72.4 µM |  |  |  |  |  |
| CN(CCCC(c1ccccc1)c1ccccc1)C(CCO)C(=O)NCc1ccc(F)cc1 (stereo unspecified) | 74% | 97.7 µM | 58.9 µM |  |  |  |  |  |
| C[C@@H](O)C[C@H](C(=O)NCc1ccc(F)cc1)N1CCC(=C(c2ccccc2)c2ccccc2)CC1 (relative stereo) |  | 16.2 µM | 41.7 µM | 42.7 µM |  |  |  |  |
| O=C(NCc1ccc(Cl)cc1)C(CCO)N1CCC(=C(c2ccccc2)c2ccccc2)CC1 (stereo unspecified) |  | 33.9 µM | 17.8 µM | 75.9 µM |  |  |  |  |
| CN(CCCC(c1ccccc1)c1ccccc1)C(CCO)C(=O)NCc1ccccc1 (stereo unspecified) | 79% | 58.9 µM | 36.3 µM |  |  |  |  |  |
| Cc1ccc(CNC(=O)C(CCO)N2CCC(C(c3ccccc3)c3ccccc3)CC2)cc1 (stereo unspecified) | 55% | 30.2 µM | 87.1 µM |  |  |  |  |  |
| C[C@H](O)C[C@H](C(=O)NCc1ccccc1Cl)N1CCC(=C(c2ccccc2)c2ccccc2)CC1 (relative stereo) | 95% |  |  |  | 71% | 47% | 73% |  |
| C[C@@H](O)C[C@H](C(=O)NCc1ccccc1Cl)N1CCC(=C(c2ccccc2)c2ccccc2)CC1 (relative stereo) | 99% |  |  |  | 99% | 95% | 69% | 79% |
| O=C(NCc1ccccc1)C(CCO)N1CCC(C(c2ccccc2)c2ccccc2)CC1 (stereo unspecified) | 55% | 13.2 µM | 58.9 µM |  |  |  | 51% |  |
| O=C(NCc1ccc(Cl)cc1)C(CCO)NCCCC(c1ccccc1)c1ccccc1 (stereo unspecified) |  | 23.4 µM | 16.6 µM | 56.2 µM |  |  |  |  |
| C[C@H](O)C[C@H](C(=O)NCc1ccc(F)cc1)N1CCC(=C(c2ccccc2)c2ccccc2)CC1 (relative stereo) | 52% | 34.7 µM |  |  | 65% |  |  |  |
| Cc1ccc(CNC(=O)C(CCO)N(C)CCCC(c2ccccc2)c2ccccc2)cc1 (stereo unspecified) |  | 37.2 µM | 20.4 µM | 81.3 µM |  |  |  |  |
| C[C@H](O)C[C@H](C(=O)NCc1ccc(Cl)cc1)N1CCC(=C(c2ccccc2)c2ccccc2)CC1 (relative stereo) | 69% | 66.1 µM | 69.2 µM |  |  |  |  |  |
| Cc1ccc(CNC(=O)C(CCO)N2CCC(=C(c3ccccc3)c3ccccc3)CC2)cc1 (stereo unspecified) |  | 38 µM | 33.9 µM | 43.7 µM |  |  |  |  |
| CN(CCC=C(c1ccccc1)c1ccccc1)C(CCO)C(=O)NCc1ccccc1 (stereo unspecified) | 50% | 10.5 µM | 22.9 µM |  |  |  |  |  |
| Cc1ccc(CNC(=O)C(CCO)NCCCC(c2ccccc2)c2ccccc2)cc1 (stereo unspecified) |  | 55 µM | 23.4 µM | 51.3 µM |  |  |  |  |
| O=C(NCc1ccc(F)cc1)C(CCO)N1CCC(C(c2ccccc2)c2ccccc2)CC1 (stereo unspecified) | 49% | 18.2 µM | 81.3 µM |  |  |  |  |  |

| SMILES | Activity [1] | IC50 [2] | IC50 [3] | Ki [4] | Activity (HEK293) | Activity [5] | Activity [6] | Activity [7] |
| --- | --- | --- | --- | --- | --- | --- | --- | --- |
| CN(CCC=C(c1ccccc1)c1ccccc1)C(CCO)C(=O)NCc1ccc(F)cc1 (stereo unspecified) | 73% | 21.9 µM | 20 µM |  |  |  |  |  |
| Cc1ccc(CNC(=O)[C@@H](C[C@H](C)O)N2CCC(=C(c3ccccc3)c3ccccc3)CC2)cc1 (relative stereo) | 57% | 53.7 µM | 34.7 µM |  |  |  |  |  |
| Cc1ccc(CNC(=O)[C@@H](C[C@@H](C)O)N2CCC(=C(c3ccccc3)c3ccccc3)CC2)cc1 (relative stereo) | 58% |  |  |  |  | 46% |  |  |
| CN(CCC=C(c1ccccc1)c1ccccc1)C(CCO)C(=O)NCc1ccccc1Cl (stereo unspecified) | 54% | 19.1 µM | 10 µM |  |  |  |  |  |
| CN(CCCC(c1ccccc1)c1ccccc1)C(CCO)C(=O)NCc1ccc(Cl)cc1 (stereo unspecified) | 67% | 38.9 µM | 22.9 µM |  |  |  |  |  |
| O=C(NCc1ccccc1Cl)C(CCO)NCCCC(c1ccccc1)c1ccccc1 (stereo unspecified) |  | 33.1 µM | 20.9 µM | 46.8 µM |  |  |  |  |
| Cc1ccsc1C(=CCCN1CCC[C@@H](C(=O)O)C1)c1sccc1C [TIAGABINE] |  |  |  | 0.0389 µM | 73% |  |  |  |
| O=C(NCc1ccccc1Cl)C(CCO)N1CCC(=C(c2ccccc2)c2ccccc2)CC1 (stereo unspecified) | 68% |  | 67.6 µM |  |  | 58% |  |  |
| O=C(NCc1ccccc1Cl)C(CCO)N1CCC(C(c2ccccc2)c2ccccc2)CC1 (stereo unspecified) | 89% | 19.5 µM | 67.6 µM |  |  |  |  |  |
| C[C@@H](O)C[C@H](C(=O)NCc1ccccc1)N1CCC(=C(c2ccccc2)c2ccccc2)CC1 (relative stereo) | 50% | 7.76 µM | 89.1 µM |  |  |  |  |  |
| O=C(NCc1ccccc1)C(CCO)NCCCC(c1ccccc1)c1ccccc1 (stereo unspecified) | 62% | 61.7 µM | 38.9 µM |  |  |  |  |  |
| Cc1ccc(CNC(=O)C(CCO)N(C)CCC=C(c2ccccc2)c2ccccc2)cc1 (stereo unspecified) | 50% | 22.4 µM | 16.6 µM |  |  |  |  |  |
| CN(CCC=C(c1ccccc1)c1ccccc1)C(CCO)C(=O)NCc1ccc(Cl)cc1 (stereo unspecified) | 61% | 23.4 µM | 11.2 µM |  |  |  |  |  |
| CN(CCCC(c1ccccc1)c1ccccc1)C(CCO)C(=O)NCc1ccccc1Cl (stereo unspecified) | 85% | 37.2 µM | 25.7 µM |  |  |  |  |  |
| O=C(NCc1ccc(Cl)cc1)C(CCO)N1CCC(C(c2ccccc2)c2ccccc2)CC1 (stereo unspecified) | 68% | 24 µM | 69.2 µM |  |  |  |  |  |
| O=C(NCc1ccc(F)cc1)C(CCO)NCCCC(c1ccccc1)c1ccccc1 (stereo unspecified) | 82% | 38.9 µM | 25.1 µM |  |  |  |  |  |
